Measured values reported in patent US6194387A, “6-O-aklyl erythromycin B oxime” (Abbott Laboratories, priority 1999, dated 2001).
Values after ≈ are worked out from the molar mass of the structure shown. Read-outs that look alike come from different tables or passages of the source.

How the values were obtained:
[1] = tested on: M[…]; assay: in vitro antibacterial activity, agar dilution MIC; type: cell-based, Micrococcus pyogenes; details: Staphylococcus aureus, ATCC9341
Protocol: (§1) 6-O-Methyl-9-oxime erythromycin B prepared in accordance with Examples 1 and 2 was assayed in vitro for anitbacterial activity as follows: Twelve petri dishes containing successive aqueous dilutions of the test compound mixed with 10 mL of sterilized Brain Heart Infusion (BHI) agar (Difco 0418-01-5) were prepared. Each plate was inoculated with 1:100 (or 1:10 for slow-growing strains, such as Micrococcus and Streptococcus) dilutions of up to 32 different micoorganisims, using a Steers replicatore block. The inoculated plates were incubated at 35-37° C. for 20 to 24 hours. In addition, a control plate, using BHI agar containing no test compound, was prepared and incubated at the beginning and end of each test.
(§2) An additional plate containing a compound having known susceptibility patterns for the organisms being tested and belonging to the same antibiotic class as the test compound was also prepared and incubated as further control, as well as to provide test-to-test comparability. Erythromycin A was used for this purpose.
(§3) After incubation, each disk was read. The minimum inhibitory concentration (MIC) was defined as the lowest concentration of drug yielding no growth, a slight haze, or sparsely isolated colonies on the inoculum spot as compared to the growth control.

[2] = tested on: M[…]; assay: in vitro antibacterial activity, agar dilution MIC; type: cell-based; details: Micrococcus luteus, ATCC4698
Protocol: as §1, §2, §3

[3] = tested on: PROVIDENCIA STUART II; assay: in vitro antibacterial activity, agar dilution MIC; type: cell-based; details: Table 2, CMX 640, read-out: MIC
Protocol: as §1, §2, §3

[4] = tested on: EN[…]; assay: in vitro antibacterial activity, agar dilution MIC; type: cell-based; details: Enterococcus faecium, ATCC8043
Protocol: as §1, §2, §3

[5] = tested on: ACINETOBACTER CALCOACETICUS; assay: in vitro antibacterial activity, agar dilution MIC; type: cell-based; details: Table 2, CMX 669, read-out: MIC
Protocol: as §1, §2, §3

[6] = tested on: STAPHYLOCOCCUS AUREUS; assay: in vitro antibacterial activity, agar dilution MIC; type: cell-based
Protocol: as §1, §2, §3

[7] = tested on: NOCARDIA ASTEROIDES; assay: in vitro antibacterial activity, agar dilution MIC; type: cell-based; details: ATCC9970, Table 2, ATCC 9970, read-out: MIC
Protocol: as §1, §2, §3

[8] = tested on: STAPHYLOCOCCUS BOVIS; assay: in vitro antibacterial activity, agar dilution MIC; type: cell-based; details: Table 2, A-5169, read-out: MIC
Protocol: as §1, §2, §3

[9] = tested on: KLEBSIELLA PNEUMONIAE; assay: in vitro antibacterial activity, agar dilution MIC; type: cell-based; details: ATCC8045, Table 2, ATCC 8045, read-out: MIC
Protocol: as §1, §2, §3

[10] = tested on: PSEUDOMONAS CEPACIA; assay: in vitro antibacterial activity, agar dilution MIC; type: cell-based; details: Burkholderia cepacia; Table 2; 2961; read-out: MIC
Protocol: as §1, §2, §3

[11] = tested on: HAEMOPHILUS INFLUENZAE; assay: in vitro antibacterial activity, agar dilution MIC; type: cell-based
Protocol: as §1, §2, §3

[12] = tested on: STAPHYLOCOCCUS PNEUMONIAE; assay: in vitro antibacterial activity, agar dilution MIC; type: cell-based
Protocol: as §1, §2, §3

[13] = tested on: STAPHYLOCOCCUS PYOGENES; assay: in vitro antibacterial activity, agar dilution MIC; type: cell-based
Protocol: as §1, §2, §3

[14] = tested on: MYCOBACTERIIUM SMEGMATIS; assay: in vitro antibacterial activity, agar dilution MIC; type: cell-based; details: Table 2; ATCC 114; read-out: MIC
Protocol: as §1, §2, §3

[15] = tested on: STAPHYLOCOCCUS EPIDERMIDIS; assay: in vitro antibacterial activity, agar dilution MIC; type: cell-based; details: Table 2, 3519, read-out: MIC
Protocol: as §1, §2, §3

[16] = tested on: PSEUDOMONAS AERUGINOSA; assay: in vitro antibacterial activity, agar dilution MIC; type: cell-based
Protocol: as §1, §2, §3

[17] = tested on: micoorganisims; assay: in vitro antibacterial activity, overall conclusion; type: cell-based
Protocol: as §1, §2, §3

[18] = tested on: EN[…]; assay: in vitro antibacterial activity, agar dilution MIC; type: cell-based, Enterobacter aerogenes; details: Klebsiella aerogenes, ATCC13048
Protocol: as §1, §2, §3

[19] = tested on: CANDIDA ALBICANS; assay: in vitro antimicrobial activity, agar dilution MIC; type: cell-based; details: Table 2, CCH 442, read-out: MIC
Protocol: as §1, §2, §3

[20] = tested on: ESCHERICHIA COLI; assay: microbe, parasite or virus in culture; type: cell-based
Protocol: as §1, §2, §3

CC[C@H]1OC(=O)[C@H](C)[C@@H](O[C@H]2C[C@@](C)(OC)[C@@H](O)[C@H](C)O2)[C@H](C)[C@@H](O[C@@H]2O[C@H](C)C[C@H](N(C)C)[C@H]2O)[C@](C)(OC)C[C@@H](C)C(=NO)[C@H](C)[C@@H](O)[C@H]1C [6-O-Methyl-9-oxime erythromycin B]
MIC [1]: 0.05 µg/mL (≈ 0.0669 µM) | MIC [2]: 0.78 µg/mL (≈ 1.04 µM) | MIC [3]: > 100 µg/mL | MIC [4]: 0.1 µg/mL (≈ 0.134 µM) | MIC [5]: 50 µg/mL (≈ 66.9 µM) | MIC ([6]; ATCC6538P, Table 2, ATCC 6538P, read-out: MIC): 0.39 µg/mL (≈ 0.522 µM) | MIC ([6]; Table 2, A5177, read-out: MIC): 6.2 µg/mL (≈ 8.3 µM) | MIC ([6]; Table 2, A-5278, read-out: MIC): > 100 µg/mL | MIC ([6]; Table 2, CMX 553, read-out: MIC): 0.78 µg/mL (≈ 1.04 µM) | MIC ([6]; Table 2, CMX 642A, read-out: MIC): 0.78 µg/mL (≈ 1.04 µM) | MIC ([6]; Table 2, NCTC10649M, read-out: MIC): 0.39 µg/mL (≈ 0.522 µM) | MIC [7]: 0.1 µg/mL (≈ 0.134 µM) | MIC [8]: 0.05 µg/mL (≈ 0.0669 µM) | MIC [9]: > 100 µg/mL | MIC [10]: > 100 µg/mL | MIC ([11]; ATCC10211, Table 3, ATCC 10211, read-out: MIC): 16 µg/mL (≈ 21.4 µM) | MIC ([11]; ATCC19418, Table 3, ATCC 19418, read-out: MIC): 32 µg/mL (≈ 42.8 µM) | MIC ([11]; ATCC43095, Table 3, ATCC 43095, read-out: MIC): 8 µg/mL (≈ 10.7 µM) | MIC ([11]; Table 3, CMX 503B, read-out: MIC): 16 µg/mL (≈ 21.4 µM) | MIC ([11]; Table 3, CMX 504, read-out: MIC): 16 µg/mL (≈ 21.4 µM) | MIC ([11]; Table 3, CMX 519A, read-out: MIC): 16 µg/mL (≈ 21.4 µM) | MIC ([11]; Table 3, CMX 566A, read-out: MIC): 16 µg/mL (≈ 21.4 µM) | MIC ([11]; Table 3, CMX 588A, read-out: MIC): 16 µg/mL (≈ 21.4 µM) | MIC ([11]; Table 3, CMX 632A, read-out: MIC): 8 µg/mL (≈ 10.7 µM) | MIC ([11]; Table 3, CMX 747C, read-out: MIC): 16 µg/mL (≈ 21.4 µM) | MIC ([11]; Table 3, CMX 751, read-out: MIC): 32 µg/mL (≈ 42.8 µM) | MIC ([11]; Table 3, GYR 1177, read-out: MIC): 1 µg/mL (≈ 1.34 µM) | MIC ([11]; Table 3, GYR 1435, read-out: MIC): 16 µg/mL (≈ 21.4 µM) | MIC ([11]; Table 3, SOL AMP R, read-out: MIC): 16 µg/mL (≈ 21.4 µM) | MIC ([11]; Table 3, SPK AMP R, read-out: MIC): 16 µg/mL (≈ 21.4 µM) | MIC ([12]; Table 3, 5649, read-out: MIC): 16 µg/mL (≈ 21.4 µM) | MIC ([12]; Table 3, 5654, read-out: MIC): 16 µg/mL (≈ 21.4 µM) | MIC ([12]; Table 3, 5728, read-out: MIC): > 128 µg/mL | MIC ([12]; Table 3, 5737, read-out: MIC): > 128 µg/mL | MIC ([12]; Table 3, 5979, read-out: MIC): > 128 µg/mL | MIC ([12]; Table 3, GYR 1171, read-out: MIC): 0.03 µg/mL (≈ 0.0402 µM) | MIC ([13]; Table 2, 930): > 100 µg/mL | MIC ([13]; Table 2, EES61, read-out: MIC): 0.02 µg/mL (≈ 0.0268 µM) | MIC ([13]; Table 2, PIU 2548, read-out: MIC): 6.2 µg/mL (≈ 8.3 µM) | MIC ([13]; Table 3, 930, read-out: MIC): > 128 µg/mL | MIC ([13]; Table 3, EES61, read-out: MIC): 0.03 µg/mL (≈ 0.0402 µM) | MIC ([13]; Table 3, PIU 2548, read-out: MIC): 16 µg/mL (≈ 21.4 µM) | MIC [14]: 0.39 µg/mL (≈ 0.522 µM) | MIC [15]: 0.39 µg/mL (≈ 0.522 µM) | MIC ([16]; Table 2, 5007, read-out: MIC): > 100 µg/mL | MIC ([16]; Table 2, DPHD-2862, read-out: MIC): > 100 µg/mL | MIC ([16]; Table 2, DPHD-5263, read-out: MIC): > 100 µg/mL | MIC ([16]; Table 2, K799/61, read-out: MIC): 1.56 µg/mL (≈ 2.09 µM) | antibacterial activity (conclusion from Tables 2 and 3) [17]: effective antibacterial agent | MIC [18]: > 100 µg/mL | MIC [19]: > 100 µg/mL | MIC ([20]; Table 2, DC-2): > 100 µg/mL | MIC ([20]; Table 2, H560): 100 µg/mL (≈ 134 µM) | MIC ([20]; Table 2, JUHL): 50 µg/mL (≈ 66.9 µM) | MIC ([20]; Table 2, KNK 437): 100 µg/mL (≈ 134 µM) | MIC ([20]; Table 2, SS): 0.78 µg/mL (≈ 1.04 µM)
